This is an account of results in patent publication US20030099693A1, “Wafer” (priority 2001, published 2003).

The term IC50 denotes the point on the concentration scale where inhibition reaches its midpoint.

Holding throughout (assay type): biochemical
Conditions in all cases: Adjusted for Plasma Protein Binding

One experiment deals with MMP-3 (Homo sapiens, UniProt P08254). Put plainly: Concentration for 50% enzyme inhibition, MMP-3.
For another experiment, the target named is T1, MMP-2 (Homo sapiens, UniProt P08253).
T1 sequence (P08253 110-660): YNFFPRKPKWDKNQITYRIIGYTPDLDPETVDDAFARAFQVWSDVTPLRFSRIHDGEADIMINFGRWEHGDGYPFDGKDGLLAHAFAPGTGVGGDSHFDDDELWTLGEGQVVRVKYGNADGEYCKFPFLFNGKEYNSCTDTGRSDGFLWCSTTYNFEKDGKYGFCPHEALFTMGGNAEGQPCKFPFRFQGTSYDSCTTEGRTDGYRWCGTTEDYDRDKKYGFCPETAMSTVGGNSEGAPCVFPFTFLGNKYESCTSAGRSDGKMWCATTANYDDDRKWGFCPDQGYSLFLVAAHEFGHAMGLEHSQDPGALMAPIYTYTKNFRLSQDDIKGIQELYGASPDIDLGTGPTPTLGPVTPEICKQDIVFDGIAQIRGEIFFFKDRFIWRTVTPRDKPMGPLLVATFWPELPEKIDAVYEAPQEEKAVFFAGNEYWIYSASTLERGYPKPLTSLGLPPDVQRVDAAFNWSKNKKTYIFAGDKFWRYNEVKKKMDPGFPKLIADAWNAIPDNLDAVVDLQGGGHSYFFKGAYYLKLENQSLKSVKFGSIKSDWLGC
Put plainly: Concentration for 50% enzyme inhibition, MMP-2.

For another experiment, the target named is MMP-14 (Homo sapiens, UniProt P50281). Put plainly: Concentration for 50% enzyme inhibition, MMP-14.
For another experiment, the target named is MMP-9 (Homo sapiens, UniProt P14780). Put plainly: Concentration for 50% enzyme inhibition, MMP-9. The text has this: (§1) The solubility range to achieve efficacious doses without adverse effects for a range of protease inhibitors is shown in Table 1.
Chain of MMP-9 (P14780 94-707, species assumed): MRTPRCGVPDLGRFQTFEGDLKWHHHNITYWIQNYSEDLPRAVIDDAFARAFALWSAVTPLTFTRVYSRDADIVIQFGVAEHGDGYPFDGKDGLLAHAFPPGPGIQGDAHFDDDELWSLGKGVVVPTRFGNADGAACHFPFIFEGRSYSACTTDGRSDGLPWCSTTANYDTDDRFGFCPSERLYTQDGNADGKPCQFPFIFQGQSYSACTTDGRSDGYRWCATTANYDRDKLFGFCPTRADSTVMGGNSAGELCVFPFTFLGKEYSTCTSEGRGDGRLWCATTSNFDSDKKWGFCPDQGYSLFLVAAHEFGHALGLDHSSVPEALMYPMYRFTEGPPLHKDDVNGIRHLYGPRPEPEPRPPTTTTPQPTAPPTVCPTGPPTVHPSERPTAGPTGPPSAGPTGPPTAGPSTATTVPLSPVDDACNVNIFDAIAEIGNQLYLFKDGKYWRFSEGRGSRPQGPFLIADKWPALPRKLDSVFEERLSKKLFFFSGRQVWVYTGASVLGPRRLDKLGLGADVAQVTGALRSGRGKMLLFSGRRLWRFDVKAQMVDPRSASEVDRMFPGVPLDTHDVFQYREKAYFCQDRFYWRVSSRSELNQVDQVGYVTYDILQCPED
In a further experiment the target is Plasmin (Homo sapiens, UniProt P00747). Put plainly: Concentration for 50% enzyme inhibition, Plasmin.
Chain of Plasmin (P00747 581-810 limits assumed, species assumed): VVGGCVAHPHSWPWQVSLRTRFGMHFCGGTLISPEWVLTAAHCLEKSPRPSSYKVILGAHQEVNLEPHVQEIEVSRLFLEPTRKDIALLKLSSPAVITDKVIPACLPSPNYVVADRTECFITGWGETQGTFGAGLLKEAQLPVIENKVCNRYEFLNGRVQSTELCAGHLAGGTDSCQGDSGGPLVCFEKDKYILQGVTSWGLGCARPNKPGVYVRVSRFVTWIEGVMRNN
Chain of Plasmin (P00747 97-580 partner limits assumed, species assumed): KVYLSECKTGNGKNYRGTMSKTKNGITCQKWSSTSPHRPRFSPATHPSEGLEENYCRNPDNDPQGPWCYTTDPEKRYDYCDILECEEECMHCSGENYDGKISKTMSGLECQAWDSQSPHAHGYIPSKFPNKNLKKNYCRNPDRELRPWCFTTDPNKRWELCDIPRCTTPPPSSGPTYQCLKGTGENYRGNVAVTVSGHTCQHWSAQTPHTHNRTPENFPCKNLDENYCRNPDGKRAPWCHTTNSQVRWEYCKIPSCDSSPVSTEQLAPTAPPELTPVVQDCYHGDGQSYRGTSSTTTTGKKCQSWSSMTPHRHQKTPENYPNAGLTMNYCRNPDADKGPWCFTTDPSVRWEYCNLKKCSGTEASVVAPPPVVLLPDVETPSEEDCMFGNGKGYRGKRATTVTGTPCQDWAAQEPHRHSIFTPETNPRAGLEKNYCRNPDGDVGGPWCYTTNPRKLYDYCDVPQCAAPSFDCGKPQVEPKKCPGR
Source text: as §1

The target of another experiment is uPA (Homo sapiens, UniProt P00749). Put plainly: Concentration for 50% enzyme inhibition, uPA.
The next experiment has as its target TPA (Homo sapiens, UniProt P00750). Put plainly: Concentration for 50% enzyme inhibition, TPA.
Source text: as §1

Chain of TPA (P00750 36-562, species assumed): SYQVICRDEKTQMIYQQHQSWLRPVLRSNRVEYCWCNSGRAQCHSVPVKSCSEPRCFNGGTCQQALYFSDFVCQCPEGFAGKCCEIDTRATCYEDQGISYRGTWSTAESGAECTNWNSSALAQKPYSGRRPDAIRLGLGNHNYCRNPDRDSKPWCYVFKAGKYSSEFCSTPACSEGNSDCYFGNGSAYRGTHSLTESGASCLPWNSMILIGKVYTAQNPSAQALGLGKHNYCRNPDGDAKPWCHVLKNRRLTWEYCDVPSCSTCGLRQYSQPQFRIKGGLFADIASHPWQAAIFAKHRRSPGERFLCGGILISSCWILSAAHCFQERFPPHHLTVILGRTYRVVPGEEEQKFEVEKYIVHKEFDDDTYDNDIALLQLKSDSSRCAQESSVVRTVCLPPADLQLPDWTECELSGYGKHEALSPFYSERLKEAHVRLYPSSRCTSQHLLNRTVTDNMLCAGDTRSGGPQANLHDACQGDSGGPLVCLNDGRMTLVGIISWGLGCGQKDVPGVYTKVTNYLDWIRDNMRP
Chain of MMP-3 (P08254 100-477, species assumed): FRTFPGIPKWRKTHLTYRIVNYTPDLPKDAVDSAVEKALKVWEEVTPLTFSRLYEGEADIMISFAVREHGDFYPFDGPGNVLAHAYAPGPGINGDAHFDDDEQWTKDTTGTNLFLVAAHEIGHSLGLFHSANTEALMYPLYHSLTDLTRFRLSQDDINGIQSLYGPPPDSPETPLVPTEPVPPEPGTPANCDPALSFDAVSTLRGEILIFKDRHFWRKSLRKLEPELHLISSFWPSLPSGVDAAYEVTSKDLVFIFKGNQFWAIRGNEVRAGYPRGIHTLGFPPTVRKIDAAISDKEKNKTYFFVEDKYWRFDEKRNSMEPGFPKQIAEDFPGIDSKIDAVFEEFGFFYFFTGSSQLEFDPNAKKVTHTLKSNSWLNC

`COC[C@@H](NC(=O)[C@@H](NC(=O)[C@H](CCCc1ccc(-c2ccccc2)c(C)c1)CC(=O)O)C(C)(C)C)c1ccccc1` [A, (3R)-3-({[(1S)-2,2-Dimethyl-1-({[(1S)-2-methoxy-1-phenylethyl]amino}carbonyl)-propyl]amino}carbonyl)-6-[(3-methyl-4-phenyl)phenyl]hexanoic acid]: the IC50 is 0.0175 mM at MMP-3, 27.2 mM on MMP-2, 35.6 mM at MMP-14 and 16.6 mM on MMP-9.
For the compound `NC(N)=Nc1ncc(Cl)c2ccc(-c3cccc(C(=O)O)c3)cc12` [inhibitor X, 3-(4-Chloro-1-guanidino-7-isoquinolyl)benzoic acid], the results for the IC50 at Plasmin, on uPA and at TPA were 33.2 mM, 0.0117 mM and more than 33.2 mM, respectively.
